Results reported in PMC4979471 (Cell Death Discovery, 2015).
Read-outs that look alike come from different tables or passages of the source.

Assays:
Test in all cases: Kinase selectivity, P33-radiolabeled assay
Assay type in all cases: biochemical
Details in all cases: 10 μM ATP
BLK = biological target: T1, BLK (Homo sapiens, UniProt P51451)
T1 construct: purchased Reaction Biology Corp
Summary of the method: (§1)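 Each enzyme was exposed to 10 μM compound, with duplicate measurements, in reactions containing 10 μM ATP. Numbers are remaining activity as a percent of the vehicle (DMSO) signal.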

AKT3 = biological target: T2, AKT3 (Homo sapiens, UniProt Q9Y243)
T2 construct: purchased Reaction Biology Corp
T2 sequence (Q9Y243 whole entry): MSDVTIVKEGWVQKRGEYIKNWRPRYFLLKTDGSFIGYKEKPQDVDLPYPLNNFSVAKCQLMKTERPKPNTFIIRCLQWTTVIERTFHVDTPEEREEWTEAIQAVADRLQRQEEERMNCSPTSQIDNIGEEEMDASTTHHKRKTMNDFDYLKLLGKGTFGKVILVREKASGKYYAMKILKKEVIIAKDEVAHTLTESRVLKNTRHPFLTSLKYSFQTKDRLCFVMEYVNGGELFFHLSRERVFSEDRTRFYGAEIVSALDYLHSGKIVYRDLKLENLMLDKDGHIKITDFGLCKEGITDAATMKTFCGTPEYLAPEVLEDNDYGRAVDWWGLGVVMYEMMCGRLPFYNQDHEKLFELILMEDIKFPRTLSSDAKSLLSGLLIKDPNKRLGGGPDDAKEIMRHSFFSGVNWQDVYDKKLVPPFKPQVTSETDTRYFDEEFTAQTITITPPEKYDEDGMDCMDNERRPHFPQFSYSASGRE
Summary of the method: as §1

GSK3a = biological target: T3, GSK3a (Homo sapiens, UniProt P49840)
T3 construct: purchased Reaction Biology Corp
Summary of the method: as §1

HIPK4 = biological target: T4, HIPK4 (Homo sapiens, UniProt Q8NE63)
T4 construct: purchased Reaction Biology Corp
T4 sequence (Q8NE63 1-616): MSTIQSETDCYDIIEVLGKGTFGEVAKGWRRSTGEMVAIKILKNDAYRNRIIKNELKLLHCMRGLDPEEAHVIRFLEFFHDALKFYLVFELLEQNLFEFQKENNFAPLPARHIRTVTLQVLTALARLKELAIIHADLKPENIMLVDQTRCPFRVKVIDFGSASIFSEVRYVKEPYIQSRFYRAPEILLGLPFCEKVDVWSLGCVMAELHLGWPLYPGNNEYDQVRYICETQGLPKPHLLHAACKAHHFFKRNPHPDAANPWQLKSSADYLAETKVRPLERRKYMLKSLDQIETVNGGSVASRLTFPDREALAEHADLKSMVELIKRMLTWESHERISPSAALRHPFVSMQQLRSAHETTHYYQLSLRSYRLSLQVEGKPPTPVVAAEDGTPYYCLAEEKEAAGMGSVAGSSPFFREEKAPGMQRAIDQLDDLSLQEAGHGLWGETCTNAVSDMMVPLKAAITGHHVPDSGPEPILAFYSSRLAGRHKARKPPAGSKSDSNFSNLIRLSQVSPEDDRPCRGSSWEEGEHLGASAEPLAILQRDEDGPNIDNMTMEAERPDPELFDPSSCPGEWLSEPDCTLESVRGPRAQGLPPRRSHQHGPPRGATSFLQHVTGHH
Summary of the method: as §1

NEK11 = biological target: T5, NEK11 (Homo sapiens, UniProt Q8NG66)
T5 construct: purchased Reaction Biology Corp
T5 sequence (Q8NG66 1-645): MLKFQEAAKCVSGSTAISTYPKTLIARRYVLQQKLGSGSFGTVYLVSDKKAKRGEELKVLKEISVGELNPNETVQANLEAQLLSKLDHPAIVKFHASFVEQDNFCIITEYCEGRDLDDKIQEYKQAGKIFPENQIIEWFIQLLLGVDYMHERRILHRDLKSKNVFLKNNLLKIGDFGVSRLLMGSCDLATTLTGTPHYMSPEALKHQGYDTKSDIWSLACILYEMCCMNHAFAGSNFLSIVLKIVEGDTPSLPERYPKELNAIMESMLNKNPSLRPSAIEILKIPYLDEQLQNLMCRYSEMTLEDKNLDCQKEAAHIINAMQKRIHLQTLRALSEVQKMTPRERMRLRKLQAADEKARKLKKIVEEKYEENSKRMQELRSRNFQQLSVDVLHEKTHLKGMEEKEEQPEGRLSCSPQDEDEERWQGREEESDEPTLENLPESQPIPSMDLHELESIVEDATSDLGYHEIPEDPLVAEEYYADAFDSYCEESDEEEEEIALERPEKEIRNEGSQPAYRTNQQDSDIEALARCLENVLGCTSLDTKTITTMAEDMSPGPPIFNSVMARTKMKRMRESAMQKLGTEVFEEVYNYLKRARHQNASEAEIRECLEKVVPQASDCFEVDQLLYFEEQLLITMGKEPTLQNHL
Summary of the method: as §1

MUSK = biological target: T6, MUSK (Homo sapiens, UniProt O15146)
T6 construct: purchased Reaction Biology Corp
T6 sequence (O15146 24-869): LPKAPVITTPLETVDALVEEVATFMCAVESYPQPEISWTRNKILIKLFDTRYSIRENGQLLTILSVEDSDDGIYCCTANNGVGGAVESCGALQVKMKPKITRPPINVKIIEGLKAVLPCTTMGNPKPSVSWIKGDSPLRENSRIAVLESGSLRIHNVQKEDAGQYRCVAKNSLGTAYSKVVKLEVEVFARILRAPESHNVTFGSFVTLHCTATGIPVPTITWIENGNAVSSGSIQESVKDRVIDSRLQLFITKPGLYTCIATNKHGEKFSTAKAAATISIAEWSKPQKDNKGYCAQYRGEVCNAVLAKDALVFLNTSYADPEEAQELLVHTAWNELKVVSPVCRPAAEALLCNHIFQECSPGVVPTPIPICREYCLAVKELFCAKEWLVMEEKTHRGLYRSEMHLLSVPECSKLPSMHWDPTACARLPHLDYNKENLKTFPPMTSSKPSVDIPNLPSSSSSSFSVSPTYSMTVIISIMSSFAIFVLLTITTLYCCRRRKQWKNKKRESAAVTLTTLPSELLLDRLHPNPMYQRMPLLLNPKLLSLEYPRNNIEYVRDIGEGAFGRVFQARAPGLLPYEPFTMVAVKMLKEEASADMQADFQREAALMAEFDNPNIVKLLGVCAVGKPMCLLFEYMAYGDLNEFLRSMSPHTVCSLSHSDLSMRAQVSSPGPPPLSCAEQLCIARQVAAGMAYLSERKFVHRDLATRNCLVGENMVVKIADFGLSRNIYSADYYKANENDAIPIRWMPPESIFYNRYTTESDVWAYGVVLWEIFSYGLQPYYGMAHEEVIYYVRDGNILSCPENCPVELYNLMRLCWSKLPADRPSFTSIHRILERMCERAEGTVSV
Summary of the method: as §1

KDR/VEGFR2 = biological target: T7, KDR/VEGFR2 (Homo sapiens, UniProt P35968)
T7 construct: purchased Reaction Biology Corp
T7 sequence (P35968 20-1356): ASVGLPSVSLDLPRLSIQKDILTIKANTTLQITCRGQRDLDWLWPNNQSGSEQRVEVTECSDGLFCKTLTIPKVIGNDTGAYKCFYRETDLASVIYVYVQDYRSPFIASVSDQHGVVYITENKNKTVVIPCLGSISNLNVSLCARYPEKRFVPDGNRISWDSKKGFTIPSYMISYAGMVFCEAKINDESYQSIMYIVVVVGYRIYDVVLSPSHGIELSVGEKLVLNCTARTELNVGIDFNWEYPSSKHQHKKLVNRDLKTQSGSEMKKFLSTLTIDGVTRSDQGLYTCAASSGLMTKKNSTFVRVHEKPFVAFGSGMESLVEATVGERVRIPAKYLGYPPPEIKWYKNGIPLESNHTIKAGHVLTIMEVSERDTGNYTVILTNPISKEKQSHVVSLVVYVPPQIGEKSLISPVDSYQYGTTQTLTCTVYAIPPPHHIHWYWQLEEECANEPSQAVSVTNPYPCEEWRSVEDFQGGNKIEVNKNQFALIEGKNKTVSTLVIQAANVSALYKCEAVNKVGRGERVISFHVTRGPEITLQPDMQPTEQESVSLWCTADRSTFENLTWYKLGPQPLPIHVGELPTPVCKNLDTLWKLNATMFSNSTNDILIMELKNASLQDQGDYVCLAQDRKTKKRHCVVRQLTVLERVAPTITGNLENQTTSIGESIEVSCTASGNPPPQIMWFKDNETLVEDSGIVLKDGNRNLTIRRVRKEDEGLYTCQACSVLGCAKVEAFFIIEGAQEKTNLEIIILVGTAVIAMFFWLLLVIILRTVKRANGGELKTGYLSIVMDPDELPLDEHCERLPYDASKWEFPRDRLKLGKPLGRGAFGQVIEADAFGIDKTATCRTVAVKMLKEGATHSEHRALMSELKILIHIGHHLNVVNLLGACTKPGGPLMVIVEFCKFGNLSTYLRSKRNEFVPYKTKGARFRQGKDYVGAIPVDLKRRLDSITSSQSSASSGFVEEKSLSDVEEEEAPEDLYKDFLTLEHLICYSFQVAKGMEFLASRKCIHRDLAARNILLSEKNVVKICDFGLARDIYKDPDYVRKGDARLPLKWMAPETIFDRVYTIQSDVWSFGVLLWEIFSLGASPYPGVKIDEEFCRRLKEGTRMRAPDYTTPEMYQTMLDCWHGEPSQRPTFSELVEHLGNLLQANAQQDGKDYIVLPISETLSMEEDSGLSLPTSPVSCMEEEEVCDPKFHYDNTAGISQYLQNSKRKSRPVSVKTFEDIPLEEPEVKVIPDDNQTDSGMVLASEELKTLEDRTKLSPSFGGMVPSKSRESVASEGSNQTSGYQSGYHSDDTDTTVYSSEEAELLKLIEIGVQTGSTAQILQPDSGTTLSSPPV
Summary of the method: as §1

PKCg = biological target: T8, PKCg (Homo sapiens, UniProt P05129)
T8 construct: purchased Reaction Biology Corp
Summary of the method: as §1

CLK2 = biological target: T9, CLK2 (Homo sapiens, UniProt P49760)
T9 construct: purchased Reaction Biology Corp
T9 sequence (P49760 whole entry): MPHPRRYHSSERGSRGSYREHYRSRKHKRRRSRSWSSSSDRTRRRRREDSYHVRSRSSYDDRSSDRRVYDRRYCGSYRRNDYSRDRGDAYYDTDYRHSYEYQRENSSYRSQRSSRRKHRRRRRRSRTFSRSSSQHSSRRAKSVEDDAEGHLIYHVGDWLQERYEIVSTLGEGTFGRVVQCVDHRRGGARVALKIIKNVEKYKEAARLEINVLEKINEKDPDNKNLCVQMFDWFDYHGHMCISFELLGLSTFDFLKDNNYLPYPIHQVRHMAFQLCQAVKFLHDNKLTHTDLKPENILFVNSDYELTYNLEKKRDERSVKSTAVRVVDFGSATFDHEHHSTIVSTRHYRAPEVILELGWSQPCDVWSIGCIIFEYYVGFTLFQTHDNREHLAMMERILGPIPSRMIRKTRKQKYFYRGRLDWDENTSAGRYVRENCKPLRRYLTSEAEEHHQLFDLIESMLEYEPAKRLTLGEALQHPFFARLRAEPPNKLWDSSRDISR
Summary of the method: as §1

IR = biological target: T10, IR (Homo sapiens, UniProt P06213)
T10 construct: purchased Reaction Biology Corp
T10 sequence (P06213 28-1382): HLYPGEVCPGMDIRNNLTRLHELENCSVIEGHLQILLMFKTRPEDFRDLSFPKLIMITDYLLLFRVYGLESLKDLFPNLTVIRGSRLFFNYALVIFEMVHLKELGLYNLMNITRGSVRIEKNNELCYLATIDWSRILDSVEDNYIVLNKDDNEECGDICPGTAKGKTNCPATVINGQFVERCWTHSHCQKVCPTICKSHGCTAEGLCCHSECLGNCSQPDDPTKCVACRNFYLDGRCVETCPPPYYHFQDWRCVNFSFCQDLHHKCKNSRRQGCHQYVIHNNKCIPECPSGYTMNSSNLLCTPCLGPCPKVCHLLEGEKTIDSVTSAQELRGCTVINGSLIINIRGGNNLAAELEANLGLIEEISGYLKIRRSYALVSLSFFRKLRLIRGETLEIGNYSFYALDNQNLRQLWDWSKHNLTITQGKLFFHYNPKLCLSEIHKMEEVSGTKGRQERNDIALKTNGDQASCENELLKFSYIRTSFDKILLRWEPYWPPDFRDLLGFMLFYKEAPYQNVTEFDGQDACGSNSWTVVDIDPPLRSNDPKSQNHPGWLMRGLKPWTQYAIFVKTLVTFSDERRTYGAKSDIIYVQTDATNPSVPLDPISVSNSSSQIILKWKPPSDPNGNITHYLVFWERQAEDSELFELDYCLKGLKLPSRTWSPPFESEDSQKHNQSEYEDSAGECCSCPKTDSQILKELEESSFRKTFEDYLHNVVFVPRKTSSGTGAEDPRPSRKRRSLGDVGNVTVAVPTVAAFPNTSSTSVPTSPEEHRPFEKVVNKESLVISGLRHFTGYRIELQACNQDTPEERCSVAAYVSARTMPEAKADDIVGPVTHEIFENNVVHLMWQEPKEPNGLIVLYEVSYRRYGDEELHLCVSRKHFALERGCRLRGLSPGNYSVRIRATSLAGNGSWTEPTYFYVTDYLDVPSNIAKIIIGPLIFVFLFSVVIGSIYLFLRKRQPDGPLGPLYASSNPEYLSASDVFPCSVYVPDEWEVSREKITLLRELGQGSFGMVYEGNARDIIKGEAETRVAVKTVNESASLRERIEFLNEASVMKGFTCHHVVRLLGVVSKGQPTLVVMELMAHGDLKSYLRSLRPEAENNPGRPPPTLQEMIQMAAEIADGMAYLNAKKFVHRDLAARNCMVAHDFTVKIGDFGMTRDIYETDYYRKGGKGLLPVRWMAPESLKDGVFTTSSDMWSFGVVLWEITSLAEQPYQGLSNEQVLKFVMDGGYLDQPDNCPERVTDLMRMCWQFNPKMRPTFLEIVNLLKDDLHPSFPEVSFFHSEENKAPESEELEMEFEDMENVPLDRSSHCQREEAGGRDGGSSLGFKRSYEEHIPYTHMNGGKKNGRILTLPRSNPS
Summary of the method: as §1

[1] = read-out: % Enzyme Activity (relative to DMSO controls) AVG
[2] = read-out: % Enzyme Activity (relative to DMSO controls) Data 1
[3] = read-out: % Enzyme Activity (relative to DMSO controls) Data 2

T1 sequence (P51451 whole entry): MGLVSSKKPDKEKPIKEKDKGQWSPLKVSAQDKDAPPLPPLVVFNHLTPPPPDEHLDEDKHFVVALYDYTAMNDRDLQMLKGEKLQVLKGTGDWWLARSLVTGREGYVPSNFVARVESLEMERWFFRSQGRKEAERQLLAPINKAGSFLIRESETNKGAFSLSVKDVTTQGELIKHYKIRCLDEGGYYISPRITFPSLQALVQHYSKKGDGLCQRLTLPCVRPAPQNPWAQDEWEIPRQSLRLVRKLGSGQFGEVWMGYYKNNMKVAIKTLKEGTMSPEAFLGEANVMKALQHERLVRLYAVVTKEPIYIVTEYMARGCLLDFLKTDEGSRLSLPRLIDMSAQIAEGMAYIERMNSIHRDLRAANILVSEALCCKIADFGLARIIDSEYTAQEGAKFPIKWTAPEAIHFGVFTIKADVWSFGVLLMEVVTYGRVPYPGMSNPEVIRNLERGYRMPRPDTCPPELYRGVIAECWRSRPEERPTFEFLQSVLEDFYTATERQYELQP

CC(C)(C)C(=O)N1N=CC[C@H]1c1ccccc1 [GSK′963]
remaining activity at 10 µM (BLK; [1]): 113%
remaining activity at 10 µM (BLK; [2]): 112%
remaining activity at 10 µM (BLK; [3]): 113%
remaining activity at 10 µM (AKT3; [1]): 102%
remaining activity at 10 µM (AKT3; [2]): 100%
remaining activity at 10 µM (AKT3; [3]): 103%
remaining activity at 10 µM (GSK3a; [1]): 111%
remaining activity at 10 µM (GSK3a; [2]): 107%
remaining activity at 10 µM (GSK3a; [3]): 114%
remaining activity at 10 µM (HIPK4; [1]): 99.5%
remaining activity at 10 µM (HIPK4; [2]): 96.7%
remaining activity at 10 µM (HIPK4; [3]): 102%
remaining activity at 10 µM (NEK11; [1]): 79.1%
remaining activity at 10 µM (NEK11; [2]): 77.3%
remaining activity at 10 µM (NEK11; [3]): 80.9%
remaining activity at 10 µM (MUSK; [1]): 99.9%
remaining activity at 10 µM (MUSK; [2]): 99.2%
remaining activity at 10 µM (MUSK; [3]): 100%
remaining activity at 10 µM (KDR/VEGFR2; [1]): 97.1%
remaining activity at 10 µM (KDR/VEGFR2; [2]): 96.8%
remaining activity at 10 µM (KDR/VEGFR2; [3]): 97.5%
remaining activity at 10 µM (PKCg; [1]): 88.5%
remaining activity at 10 µM (PKCg; [2]): 86.8%
remaining activity at 10 µM (PKCg; [3]): 90.2%
remaining activity at 10 µM (CLK2; [1]): 101%
remaining activity at 10 µM (CLK2; [2]): 102%
remaining activity at 10 µM (CLK2; [3]): 99.7%
remaining activity at 10 µM (IR; [1]): 101%
remaining activity at 10 µM (IR; [2]): 104%
remaining activity at 10 µM (IR; [3]): 97.1%
